Here are results for 2 compounds from article PMC4120060 (Psychoneuroendocrinology, 2014).

For data set [1] the following is noted: in vivo; cited from earlier work.
Data set [2] in a line: Lumbar CSF OT concentration after OT administration. The note with it: N=6.
For data set [3] the following is noted: humans; four-fold lower intramuscular dose; ref Landgraf, 1985; cited from earlier work.
Data set [4] is described as follows: Plasma OT concentration after OT administration. The class given is in vivo, rhesus monkeys (Macaca mulatta).
The conditions of data set [5]: in vivo; cited from earlier work. The source holds these as a separate data set.
For data set [6] the following is noted: ref Mens et al., 1983; cited from earlier work.

For `CC[C@H](C)[C@@H]1NC(=O)[C@H](Cc2ccc(O)cc2)NC(=O)[C@@H](N)CSSC[C@@H](C(=O)N2CCC[C@H]2C(=O)N[C@@H](CC(C)C)C(=O)NCC(N)=O)NC(=O)[C@H](CC(N)=O)NC(=O)[C@H](CCC(N)=O)NC1=O` [OT, oxytocin], in data set [1], the “passive diffusion of peptide from the plasma to the CSF” value is reported as ~ 1%. The “lumbar CSF OT after IV-OT” value in data set [2] (IV 48 IU Syntocinon vs placebo, 0, 60, 120 min) was “no impact on lumbar CSF concentrations”. Further, the “lumbar CSF OT after IN-OT” value in data set [2] (intranasal spray 24 IU Syntocinon vs placebo, 0, 60, 120 min) is reported as “No significant effect”. Moreover, the “plasma OT concentration, intramuscular relative to nasal administration” value in data set [3] is reported as 10 fold. Moreover, in data set [4] (IV bolus 48 IU Syntocinon, 15 min after administration, N=6, RIA), the “increase in plasma OT after IV-OT, 15 min” value is listed as “thousand fold increase”. Moreover, the “increase in plasma OT after IV-OT, 60 min” value in data set [4] (IV bolus 48 IU Syntocinon, 60 min after administration, N=6, RIA) is “hundred fold increase”. In addition, the “plasma OT above baseline after IV-OT, 120 min” value in data set [4] (IV bolus 48 IU Syntocinon, 120 min after administration, N=6, RIA) was 100 times. Further, the “plasma OT after IN-OT versus placebo” value in data set [4] (intranasal spray 24 IU Syntocinon vs placebo, 60 and 120 min, N=6) is “significantly increased plasma levels of OT”. For the same compound, the “increase in plasma OT over baseline after IN-OT” value in data set [4] (intranasal spray 24 IU Syntocinon, 60 and 120 min, N=6, RIA) is 100 fold. Also, the “CSF OT concentrations after IN-OT spray versus placebo/saline” value in data set [5] is “higher”. Besides, the “half-life of OT in the blood” value in data set [6] is given as “approximately 2 minutes”.

As to α-melanocyte stimulating hormone, the “CSF concentration of the peptide after nasal delivery” value in data set [5] is recorded as “increased concentrations in cerebrospinal fluid (CSF) over baseline levels”.
